Reference: US9458176B2, “Tetrahydroimidazo(1,5-D)[1,4]oxazepine derivative” (Eisai R&D Management Co., Ltd., priority 2013, dated 2016)
Marks after values point to notes of the source that are not given here.

molecular target: human mGluR2 (Homo sapiens (Human), UniProt Q14416); experiment: [35S]GTPγS binding assay (Affinity to mGluR2); type: biochemical; conditions: cell membrane fraction of HEK293 cells stably expressing human mGluR2; glutamic acid 10 μM
Method in brief: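 Membranes from HEK293 cells stably co-expressing human mGluR2 and SLC1A3 (1.8–3 μg protein) preincubated with compound 30 min at RT, then stimulated with 10 μM glutamate 15 min; [35S]GTPγS (0.8 kBq) with WGA-SPA beads 1 h, buffer with 3 μM GDP, 100 mM NaCl, 1 mM MgCl2. IC50 from inhibition of glutamate-specific binding.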

human mGluR2, sequence (Q14416 19-872): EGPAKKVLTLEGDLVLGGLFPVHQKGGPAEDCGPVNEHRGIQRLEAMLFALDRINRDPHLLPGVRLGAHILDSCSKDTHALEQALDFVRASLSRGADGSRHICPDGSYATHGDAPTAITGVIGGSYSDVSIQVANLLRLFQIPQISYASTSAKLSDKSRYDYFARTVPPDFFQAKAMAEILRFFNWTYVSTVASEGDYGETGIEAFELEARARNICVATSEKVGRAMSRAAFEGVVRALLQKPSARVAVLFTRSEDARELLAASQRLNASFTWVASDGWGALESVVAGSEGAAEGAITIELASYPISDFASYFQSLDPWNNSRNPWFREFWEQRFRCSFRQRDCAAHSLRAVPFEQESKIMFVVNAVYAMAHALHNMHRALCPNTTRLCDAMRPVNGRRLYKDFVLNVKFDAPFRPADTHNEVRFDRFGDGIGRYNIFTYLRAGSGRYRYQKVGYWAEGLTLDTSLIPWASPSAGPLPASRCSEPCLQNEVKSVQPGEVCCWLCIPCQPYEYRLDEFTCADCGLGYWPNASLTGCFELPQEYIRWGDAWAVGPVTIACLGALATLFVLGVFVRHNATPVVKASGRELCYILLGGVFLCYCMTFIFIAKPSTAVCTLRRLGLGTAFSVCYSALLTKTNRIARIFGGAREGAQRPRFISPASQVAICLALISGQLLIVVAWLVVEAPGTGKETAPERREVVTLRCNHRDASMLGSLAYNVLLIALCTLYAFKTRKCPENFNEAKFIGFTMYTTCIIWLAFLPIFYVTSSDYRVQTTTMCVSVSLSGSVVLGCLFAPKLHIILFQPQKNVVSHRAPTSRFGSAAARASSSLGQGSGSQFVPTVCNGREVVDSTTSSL

Going from `COc1cc(-c2nc(-c3cc(C)nc(C)c3)c3n2CCOCC3)ccc1Cl` [Example 44] to `Cc1cc(-c2nc(-c3ccc(Cl)c(C)c3)n3c2CCOCC3)cc(C)n1` [Example 110], the IC50 rises from 22.3 nM to 64.2 nM (2.9-fold). The first is the more potent here.

`COc1cc(-c2nc(-c3cc(C)nc(C)c3)c3n2C[C@@H](CF)OCC3)ccc1Cl` [Example 11, (S)-3-(4-chloro-3-methoxyphenyl)-1-(2,6-dimethylpyridin-4-yl)-6-fluoromethyl-5,6,8,9-tetrahydroimidazo[1,5-d][1,4]oxazepine] and `COc1cc(-c2nc(-c3cc(C)nc(C)c3)c3n2C[C@@H](CF)OCC3)ccc1C(F)F` [Example 28, (S)-3-(4-(difluoromethyl)-3-methoxyphenyl)-1-(2,6-dimethylpyridin-4-yl)-6-(fluoromethyl)-5,6,8,9-tetrahydroimidazo[1,5-d][1,4]oxazepine] are within 1.5-fold of each other in IC50: 11.4 nM for the first, 16.2 nM for the second.

First: COc1cc(-c2nc(-c3ccnc(C)c3)c3n2C[C@@H](C)OCC3)ccc1OC(F)(F)F [Example 24, (R)-3-(3-methoxy-4-(trifluoromethoxy)phenyl)-6-methyl-1-(2-methylpyridin-4-yl)-5,6,8,9-tetrahydroimidazo[1,5-d][1,4]oxazepine]
Second: Cc1cc(-c2nc(-c3ccc(OC(F)(F)F)c(C)c3)n3c2CCO[C@H](C)C3)ccn1 [Example 9, (R)-6-methyl-3-(3-methyl-4-(trifluoromethoxy)phenyl)-1-(2-methylpyridin-4-yl)-5,6,8,9-tetrahydroimidazo[1,5-d][1,4]oxazepine]
The IC50 of the first is 2.5-fold higher: 4.8 nM for the first, 1.9 nM for the second.

`Cc1cc(-c2nc(-c3ccc(Cl)c(F)c3)n3c2CCO[C@H](C)C3)cc(CF)n1` [Example 87] and `Cc1cc(-c2nc(-c3ccc(Cl)c(C(F)F)c3)n3c2CCO[C@H](C)C3)cc(C)n1` [Example 131] are within 1.5-fold of each other in IC50: 22 nM for the first, 25.5 nM for the second.

`COc1cc(-c2nc(-c3cc(C)nc(C)c3)c3n2C[C@@H](C)OCC3)ccc1C(F)F` [Example 128] and `COc1cc(-c2nc(-c3cc(C)nc(C(F)F)c3)c3n2C[C@@H](C)OCC3)ccc1C` [Example 80] are within 1.5-fold of each other in IC50: 9.1 nM for the first, 6.3 nM for the second.

Compared with `COc1cc(-c2nc(-c3cc(C)nc(CF)c3)c3n2C[C@@H](C)OCC3)ccc1OC(F)(F)F` [Example 30, (R)-1-(2-(fluoromethyl)-6-methylpyridin-4-yl)-3-(3-methoxy-4-(trifluoromethoxy)phenyl)-6-methyl-5,6,8,9-tetrahydroimidazo[1,5-d][1,4]oxazepine], `COc1cc(-c2nc(-c3cc(C)nc(C)c3)c3n2C[C@@H](C)OCC3)ccc1OC(F)(F)F` [Example 25, (R)-1-(2,6-dimethylpyridin-4-yl)-3-(3-methoxy-4-(trifluoromethoxy)phenyl)-6-methyl-5,6,8,9-tetrahydroimidazo[1,5-d][1,4]oxazepine] is 1.6-fold lower in IC50: 5.2 nM for the first, 3.2 nM for the second.

First: Cc1cc(-c2nc(-c3ccc(F)c(OCC4CC4)c3)n3c2CCOCC3)cc(C)n1 [Example 94]
Second: Cc1cc(-c2nc(-c3ccc(F)c(OCC4CCC4)c3)n3c2CCO[C@H](C)C3)cc(C)n1 [Example 98]
The IC50 of the first is 11-fold higher: 34.9 nM for the first, 3.1 nM for the second.

Going from `Cc1cc(-c2nc(-c3ccc(OC(F)(F)F)c(C)c3)n3c2CCOCC3)ccn1` [Example 118] to `COc1cc(-c2nc(-c3ccnc(C)c3)c3n2CCOCC3)ccc1C(F)(F)F` [Example 123], the IC50 rises from 10.9 nM to 36 nM (3.3-fold).

`Cc1cc(-c2nc(-c3ccc(OC(F)F)c(C)c3)n3c2CCO[C@H](CF)C3)ccn1` [Example 40, (S)-3-(4-(difluoromethoxy)-3-methylphenyl)-6-(fluoromethyl)-1-(2-methylpyridin-4-yl)-5,6,8,9-tetrahydroimidazo[1,5-d][1,4]oxazepine] and `COc1cc(-c2nc(-c3ccnc(C)c3)c3n2C[C@@H](CF)OCC3)ccc1OC(F)(F)F` [Example 17, (S)-6-(fluoromethyl)-3-(3-methoxy-4-(trifluoromethoxy)phenyl)-1-(2-methylpyridin-4-yl)-5,6,8,9-tetrahydroimidazo[1,5-d][1,4]oxazepine] are within 1.5-fold of each other in IC50: 4.7 nM for the first, 3.8 nM for the second.

Compared with `Cc1cc(-c2nc(-c3ccc(OC(F)(F)F)c(F)c3)n3c2CCOCC3)cc(C)n1` [Example 106], `Cc1cc(-c2nc(-c3ccc(OC(F)F)c(F)c3)n3c2CCOCC3)cc(C)n1` [Example 119] is 1.5-fold higher in IC50: 20.9 nM for the first, 31.8 nM for the second.

`Cc1cc(-c2nc(-c3ccc(OC(F)(F)F)c(C)c3)n3c2CCO[C@H](C)C3)cc(C)n1` [Example 67] and `Cc1cc(-c2nc(-c3ccc(OC(F)(F)F)c(Cl)c3)n3c2CCO[C@H](C)C3)cc(C)n1` [Example 133] are within 1.5-fold of each other in IC50: 4.7 nM for the first, 4.4 nM for the second.

Compared with `CCOc1ccc(-c2nc(-c3cc(C)nc(C)c3)c3n2C[C@@H](CF)OCC3)cc1Cl` [Example 37, (S)-3-(3-chloro-4-ethoxyphenyl)-1-(2,6-dimethylpyridin-4-yl)-6-(fluoromethyl)-5,6,8,9-tetrahydroimidazo[1,5-d][1,4]oxazepine], `Cc1cc(-c2nc(-c3ccc(OC4CC4)c(Cl)c3)n3c2CCO[C@H](C)C3)cc(C)n1` [Example 19, (R)-3-(3-chloro-4-cyclopropoxyphenyl)-1-(2,6-dimethylpyridin-4-yl)-6-methyl-5,6,8,9-tetrahydroimidazo[1,5-d][1,4]oxazepine] is 2-fold lower in IC50: 6 nM for the first, 3 nM for the second.

Going from `Cc1cc(-c2nc(-c3cccc(Cl)c3)n3c2CCO[C@H](C)C3)cc(C)n1` [Example 62] to `Cc1cc(-c2nc(-c3cccc(Cl)c3)n3c2CCO[C@H](C)C3)ccn1` [Example 63], the IC50 rises from 37.7 nM to 78.6 nM (2.1-fold). The first is the more potent here.

First: Cc1cc(-c2nc(-c3ccc(C(F)F)c(Cl)c3)n3c2CCOCC3)cc(C)n1 [Example 137]
Second: Cc1cc(-c2nc(-c3ccc(C(F)(F)F)c(C)c3)n3c2CCO[C@H](C)C3)cc(C)n1 [Example 124]
The IC50 of the first is 4.2-fold higher: 18.7 nM for the first, 4.5 nM for the second. The second is the more potent here.

`COc1cc(-c2nc(-c3ccnc(C)c3)c3n2C[C@@H](C)OCC3)ccc1C(F)(F)F` [Example 8, (R)-3-(3-methoxy-4-(trifluoromethyl)phenyl)-6-methyl-1-(2-methylpyridin-4-yl)-5,6,8,9-tetrahydroimidazo[1,5-d][1,4]oxazepine] showed an IC50 of 13.2 nM.

same assay, conditions: cell membrane fraction of HEK293 cells stably expressing human mGluR2; glutamic acid 10 μM; inhibition of specific [35S]GTPγS binding

`Cc1cc(-c2nc(-c3ccc(F)c(OC(F)(F)F)c3)n3c2CCO[C@H](C)C3)cc(C)n1` [Example 157] and `Cc1cc(-c2nc(-c3ccc(OC(F)(F)F)c(F)c3)n3c2CCO[C@H](C)C3)cc(C)n1` [Example 147] are within 1.5-fold of each other in IC50: 12.7 nM for the first, 10.5 nM for the second.

Compared with `COc1ccc(-c2nc(-c3cc(C)nc(C(F)F)c3)c3n2C[C@@H](C)OCC3)cc1Cl` [Example 190], `Cc1cc(-c2nc(-c3ccc(OC(F)(F)F)c(Cl)c3)n3c2CCO[C@H](C)C3)ccn1` [Example 153] is 14-fold lower in IC50: 42.2 nM for the first, 3 nM for the second.

First: CCOc1cc(-c2nc(-c3ccnc(C)c3)c3n2CCOCC3)ccc1CC [Example 214]
Second: CCOc1cc(-c2nc(-c3ccnc(C)c3)c3n2C[C@@H](C)OCC3)ccc1CC [Example 219]
The IC50 of the first is 2.7-fold higher: 21 nM for the first, 7.9 nM for the second. The second is the more potent here.

Going from `Cc1cc(-c2nc(-c3ccc(OC(F)(F)F)c(F)c3)n3c2CCO[C@H](C)C3)cc(CF)n1` [Example 206] to `Cc1cc(-c2nc(-c3ccc(OC(F)(F)F)c(F)c3)n3c2CCO[C@H](CF)C3)cc(C)n1` [Example 165], the IC50 falls from 18.7 nM to 9.4 nM (2-fold). The second is the more potent here.

First: Cc1cc(-c2nc(-c3ccc(OCC(F)F)c(Cl)c3)n3c2CCOCC3)cc(C)n1 [Example 218]
Second: Cc1cc(-c2nc(-c3ccc(OC(F)(F)F)c(C)c3)n3c2CCOCC3)cc(CF)n1 [Example 198]
The IC50 of the first is 6-fold higher: 78.8 nM for the first, 13.2 nM for the second. The second is the more potent here.

First: COc1cc(-c2nc(-c3cc(C)nc(CF)c3)c3n2C[C@@H](CF)OCC3)ccc1C(F)(F)F [Example 201]
Second: COc1ccc(-c2nc(-c3cc(C)nc(C)c3)c3n2C[C@@H](CF)OCC3)cc1C [Example 245]
The IC50 of the first is 2.2-fold lower: 2.4 nM for the first, 5.2 nM for the second. The first is the more potent here.

Going from `Cc1cc(-c2nc(-c3ccc(C)c(OCC4CC4)c3)n3c2CCO[C@H](C)C3)cc(C)n1` [Example 226] to `Cc1cc(-c2nc(-c3ccc(C)c(OCC(C)C)c3)n3c2CCO[C@H](C)C3)cc(C)n1` [Example 227], the IC50 rises from 10.5 nM to 22 nM (2.1-fold).

Compared with `Cc1cc(-c2nc(-c3ccc(OC(F)(F)F)c(C#N)c3)n3c2CCO[C@H](C)C3)ccn1` [Example 169], `COc1cc(-c2nc(-c3ccnc(C)c3)c3n2C[C@@H](CF)OCC3)ccc1C(F)F` [Example 160] is 5.2-fold higher in IC50: 4.6 nM for the first, 24.1 nM for the second. The first is the more potent here.

tested on: Long-Evans rats; experiment: Novel Object Recognition (NOR) test in rats with scopolamine-induced cognitive impairment; type: in vivo, rat; conditions: male Long-Evans rats, scopolamine 0.3 mg/kg i.p.; statistically significant difference in discrimination index vs scopolamine alone group
Protocol: Six-week old male Long-Evans rats were used for this test. For 2 days before starting the test, the rats were acclimated to experimental operations such as administration and a test device (that is, a black or gray plastic cage with a width of 40 cm, a depth of 30 cm and a height of 45 cm). Each test compound was dissolved in a 0.1 N hydrochloric acid to be orally administered. Thirty minutes after the administration, scopolamine hydrobromide was intraperitoneally administered at a 0.3 mg/kg dose, so as to induce cognitive impairment. After another 30 minutes, each rat was acclimated in the test device for 3 minutes, and thereafter, two blocks in the same shape were put in the test device as acquisition trial, and exploring time for each block was measured for 5 minutes. Two hours after the acquisition trial, the rat was acclimated in the test device for 3 minutes, and thereafter, the same block as those used in the acquisition trial and a new block in a different shape were put in the cage for retention trial. The exploring time for each block was measured for 3 minutes, and a ratio of the exploring time for the newly used block to the sum of the exploring times for the respective blocks was calculated as a discrimination index. The thus obtained discrimination indexes were compared among a group of rats to which a medium alone was administered (medium group), a group of rats to which scopolamine alone was administered (scopolamine alone group) and a group of rats to which both the test compound and scopolamine were administered, so as to evaluate the action of the test compound on the novel object recognition function (cognitive function) of the rats.
Each discrimination index was shown as an average and a standard error. The statistical significance between the medium group and the scopolamine alone group was analyzed by the independent t-test. The statistical significance between the scopolamine alone group and each sample group was analyzed by one-way analysis of variance and then by Dunnett's multiple comparison test. The significance level was set to 5% on both sides. […] The analysis was carried out by using Prism 5 for Windows for Japanese, ver. 5.03.
A minimum effective dose at which a statistically significant difference was found between a group suffering from the cognitive impairment induced by scopolamine and a group treated with each compound is shown in Table 10.

In the case of `COc1cc(-c2nc(-c3cc(C)nc(C)c3)c3n2CCOCC3)ccc1Cl` [Example 44], the Minimum effective dose is reported as 1 mg/kg, p.o.
For `COc1cc(-c2nc(-c3cc(C)nc(C)c3)c3n2C[C@@H](CF)OCC3)ccc1Cl` [Example 11, (S)-3-(4-chloro-3-methoxyphenyl)-1-(2,6-dimethylpyridin-4-yl)-6-fluoromethyl-5,6,8,9-tetrahydroimidazo[1,5-d][1,4]oxazepine], the Minimum effective dose was >1* mg/kg, p.o.
For `COc1cc(-c2nc(-c3ccnc(C)c3)c3n2C[C@@H](C)OCC3)ccc1OC(F)(F)F` [Example 24, (R)-3-(3-methoxy-4-(trifluoromethoxy)phenyl)-6-methyl-1-(2-methylpyridin-4-yl)-5,6,8,9-tetrahydroimidazo[1,5-d][1,4]oxazepine], the Minimum effective dose was 1 mg/kg, p.o.
`Cc1cc(-c2nc(-c3ccc(Cl)c(F)c3)n3c2CCO[C@H](C)C3)cc(CF)n1` [Example 87] was tested, and the Minimum effective dose was 3 mg/kg, p.o.
